Reference: US20210079476A1, “BIOMARKERS OF RENAL OSTEODYSTROPHY TYPE” (The Trustees of Columbia University in the City of New York, priority 2018, published 2021)
“Also recorded” adds a separate entry of the source.

Columns and labels:
Cy/+ (CKD) rat = settings: Cy/+ CKD rat model; cited from earlier work
CKD rats (Cy/+) [1] = assay: Cy/+ rat model of CKD: bone turnover by histomorphometry after treatment; assay type: in vivo
Excerpt: (§1) The Cy/+ rat model of CKD was used to assess bone expression of miRNAs. Cy/+ rats are characterized by an autosomal dominant progressive cystic kidney disease that is […] with human ADPKD(63). […] The Cy/+IU colony of rats has been bred for nearly 20 years. The model recapitulates CKD-MBD with progressive kidney disease, hyperphosphatemia, secondary hyperparathyroidism, elevated FGF-23, resulting in ROD and vascular calcification. Importantly, the slowly progressive nature of the model allows for examination of interventions that differentially affect bone remodeling. […] In brief, CKD animals (n=8-10 each group) began treatment at 25 weeks for a total of 10 weeks and received 1) no treatment (control CKD=high PTH/high turnover, 2) 3% calcium in the drinking water (CKD/Ca group=low PTH/low turnover), or 3) a single injection of zoledronic acid (CKD/Zol group=high PTH/low turnover). At 35 weeks of age, animals were euthanized and bone tissue were collected. Bone histomorphometry as previously reported (67). RNA was isolated from tibia and bone miRNA expression determined by real time PCR using TaqMan miRNA assay as above.
The Cy/+ rat model of CKD was used to assess bone expression of miRNAs. […] The Cy/+IU colony of rats has been bred at Indiana University for nearly 20 years. […]

[2] = system: miRNA 30b, 30c, 125b and 155; assay type: in vivo, rat; settings: CKD rats
Excerpt: as §1
The Cy/+ rat model of CKD was used to assess bone expression of miRNAs. […] The Cy/+IU colony of rats has been bred at Indiana University for nearly 20 years. The model recapitulates CKD-MBD with progressive kidney disease, hyperphosphatemia, secondary hyperparathyroidism, elevated FGF-23, resulting in ROD and vascular calcification. Importantly, the slowly progressive nature of the model allows for examination of interventions that differentially affect bone remodeling. Specifically, we have induced low turnover bone remodeling by two methods: with calcium in the drinking water (calcium binders) and zoledronic acid.^41, 42 In brief, CKD animals (n=8 to 10 each group) began treatment at 25 weeks for a total of 10 weeks and received: (i) no treatment (control CKD=high PTH/high turnover; (ii) 3% calcium in the drinking water (CKD/Ca group=low PTH/low turnover); or (iii) a single injection of 20 μg/kg of zoledronic acid (CKD/Zol group=high PTH/low turnover). At 35 weeks of age, animals were euthanized and bone tissue was collected. Bone histomorphometry was performed as previously reported.^43 RNA was isolated from tibia, and bone miRNA expression was determined by real-time PCR using TaqMan miRNA assay as described above. All procedures were reviewed and approved by the Indiana University School of Medicine Institutional Animal Care and Use Committee.

CKD rats (Cy/+) [3] = settings: Cy/+ rat model; cited from earlier work

| Compound | suppressing bone turnover (Cy/+ (CKD) rat) | PTH status of the treated group (CKD rats (Cy/+) [1]; same treatment groups, untreated CKD = high PTH) | type of bone turnover induced by the intervention (histomorphometry) (CKD rats (Cy/+) [1]; treatment from 25 weeks of age for 10 weeks, 3% calcium in drinking water or single injection of zoledronic acid, untreated CKD = high turnover) | levels of miRNAs, low turnover induced by dietary calcium compared with zoledronic acid ([2]; bone tissue) | bone-tissue expression of miRNA-30b vs rats with high turnover ([2]; tibia, 35 weeks of age) | bone-tissue expression of miRNA-30c vs rats with high turnover ([2]; tibia, 35 weeks of age) | bone-tissue expression of miRNA-125b vs rats with high turnover ([2]; tibia, 35 weeks of age) | bone-tissue expression of miRNA-155 vs rats with high turnover ([2]; tibia, 35 weeks of age) | induction of low turnover bone remodeling (CKD rats (Cy/+) [3]) |
| --- | --- | --- | --- | --- | --- | --- | --- | --- | --- |
| C=C1/C(=C\C=C2/CCC[C@]3(C)[C@@H]([C@H](C)CCCC(C)(C)O)CC[C@@H]23)C[C@@H](O)C[C@@H]1O [Calcitriol] | not effective | – | – | – | – | – | – | – | – |
| [Ca+2] [calcium] | – | low PTH | low turnover | did not differ | low expression; also recorded: lower | low expression; also recorded: lower | low expression; also recorded: lower | low expression; also recorded: lower | low turnover bone remodeling has been induced |
